Experiment [1] has as its system serum polyclonal antirhamnose antibodies (human IgG). Kind of experiment: BLI affinity of rhamnose probes for polyclonal human IgG. The following applies: for kon: anti-rhamnose assumed 3% of total IgG; for koff: dissociation in 100 mM L-rhamnose. It counts as binding. An excerpt:
We began by synthesizing antirhamnose affinity probes consisting of α-O/α-S and β-S rhamnose glycosides functionalized with a propargyl group for CuAAC-mediated coupling to a biotin TBD (compounds 1–3, Figure 1A and Scheme S1). This enabled rhamnose immobilization onto streptavidin surfaces and subsequent antibody binding studies. We used biolayer interferometry (BLI) to estimate and compare the apparent affinity of serum polyclonal antirhamnose antibodies for each rhamnose affinity probe (Figure 1B). […] Next, biosensors were submerged in a buffer containing free rhamnose competitor, and dissociation kinetics were measured (Figure 1B, Dissociation). The dissociation buffer contained 100 mM rhamnose competitor to inhibit avidity-based antibody rebinding, which interferes with koff measurements. […] In the context of proximity-inducing molecule development, this low monovalent sugar-binding affinity will ultimately limit ternary complex formation. […] The confirmation of low affinity binding also supports why multivalency has been historically required to efficiently engage antirhamnose antibodies for tumor-immune proximity induction and engage sugar binding receptors in general.
Figure 1 Affinity determination of endogenous and monoclonal antibody sources for L-rhamnose glycoside variants. A. Chemical structures of rhamnose affinity probes. B/C. Approximation of antirhamnose antibody binding affinity for probes 1–3 using biolayer interferometry. B. Purified human serum IgG is used to estimate the affinity of endogenous polyclonal serum antirhamnose antibodies for each affinity probe 1–3. C. Monoclonal anti-23F antibody is used to estimate the potential affinity of vaccine-induced antirhamnose antibodies for each affinity probe 1–3. […] Association was monitored for 900 (B) or 600 (C) seconds. The loaded biosensor probe was then dipped into a dissociation solution of 100 mM L-rhamnose for 600 s. Association curves were fit to a two-phase association model in GraphPad Prism using Kfast to calculate kon. Dissociation curves were similarly fit to a two-phase decay using Kfast to calculate koff. TEXT PRINTED IN THE PICTURE: (B) no label printed: Polyclonal Human IgG: Kd ≈ 7 x10^-5 M | (C) no label printed: Monoclonal Anti-23F: Kd ≈ 6 x10^-6 M DOUBTS OF THE COPYIST ABOUT THIS PICTURE: Panel B, Kd ≈ 7 x10^-5 M: printed once in the plot with no link to a single curve, so it is unclear which of (1) α–O, (2) α–S and (3) β–S it applies to / Panel C, Kd ≈ 6 x10^-6 M: printed once in the plot with no link to a single curve, so it is unclear which of (1) α–O, (2) α–S and (3) β–S it applies to […]
General Notes and Materials […]
Biolayer Interferometry (BLI) General notes and Materials
IgG from human serum was purchased from Innovative Research (IHUI GGAP1000MG). Anti -23F antibody was purchased fr om Creative Biolabs (PABX -173). Biolayer Interferometry (BLI) was conducted using a ForteBio Octet Red96, and streptavidin biosensors (Sartorius - 18-5019) or ProG biosensors (Sartorius – 18-5082). For quench, a 5% skim milk (Nestle Carnation Instant Skim Milk) solution in 1X kinetics buffer was used. The instrument was set at 25 °C, with 1000 RPM, and acquisition rate of 5 Hz.
Each well of a black well plate (Greiner Bio -One - 655086) was filled with 200 µL of appropriate solution.
Dissociation buffer was comprised of L-rhamnose (100 mM, Sigma Aldrich – R3875-10G) in 1X kinetics buffer to reduce avidity contribution to dissociation rate (koff).
SDS-PAGE General notes and Materials […]
Carboxyfluorescein was purchased from Sigma Aldrich (21877 -5G-F). IgG from human serum was purchased from Innovative Research (IHUIGGAP1000MG). Anti -23F antibody was purchased from Creative Biolabs (PABX -173). Laemellie Buffer (2x) was purchased from Sigma Aldrich (S3401 -10VL).
Pre-cast Tris-Glycine Gels (4-20%) were purchased from Fisher Scientific (XP04202BOX). Standard protein ladder was purchased from Bio Rad (1610363). […]

The test system of experiment [2] is human serum antirhamnose antibody (IgG and IgM). Kind of experiment: ELISA covalent engagement of serum anti-rhamnose antibody. The experiment is classed as binding. The following applies: 2 μM compound, 2% human serum, 48 h; rhamnose 100 mM added after incubation. As to the method: Figure 2 Capacity of Rha-cARMs to specifically covalently engage monoclonal anti-23F and serum anti-rhamnose. A. Chemical structures of the molecules investigated. B. Assessment of covalent vs noncovalent (cARM/ARM) engagement of human serum antirhamnose antibody via an ELISA assay. Each ARM/cARM (2 μM) was incubated with 2% human serum for 48 h and subsequently incubated directly on a streptavidin ELISA plate. Recruitment was evaluated by the addition of anti-IgG or anti-IgM HRP-conjugated secondary antibody with subsequent chromogenic substrate addition. “Comp” represents the addition of competitor rhamnose (500 mM) during 48 h of incubation. “Quench” refers to the addition of competitor rhamnose (100 mM) prior to ELISA plate binding but after 48 h of reaction incubation. C. SDS-PAGE fluorescent image of anti-23F antibody covalently labeled by fluorophore substituted Rha-cARMs (6–8). A representative protein stain associated with each gel is included on the left side of the fluorescent gel images. In all cases, 2 μM anti-23F antibody is incubated with 4 μM cARM (2 equiv) for 24 h in PBS spiked with 10% human serum. Where noted, L-rhamnose (100 mM, Rha. C) was used during incubation as a competitor for specific covalent labeling. Where noted, a free fluoresceine competitor (2.5 mM, Fluor. C) was used to distinguish fluorescein-promoted covalent labeling from rhamnose-promoted. The darker background in gels corresponding to cARM 6, 7 is attributed to the differing capacity of free cARM-fluorophore (fluoroscein vs A647) to be retained in gel, as well as an alternative imaging channel (Cy2 for fluorescein, Cy5 for A647). […] D. Kinetic SDS-PAGE fluorescence imaging experiment to determine Rha-AI-cARM/anti-23F antibody labeling kinetics using A647-cARM (8). cARM 8 (2–100 μM) was incubated with anti-23F antibody (2 μM) for up to 4 h. A representative fluorescence gel image is included corresponding to compound 8 (50 μM) incubated with either anti-23F antibody or isotype human IgG. Densitometry analysis with ImageJ was used to quantify relative band intensities. […] The error is calculated by alternative fits of initial rates data (all within the linear labeling range).
Next, we tested if cARM tool compounds can selectively label endogenous human polyclonal antirhamnose antibodies via ELISA (4 α-O rhamnose or 5 α-S rhamnose) (Figure 2B). cARMs (4, 5) and noncovalent analog ARMs (1, 2) were incubated with 2% human serum for 48 h followed by addition to a streptavidin-ELISA plate. Antibody recruitment to the plate surface was measured via the addition of HRP-conjugated anti-IgG or anti-IgM secondary antibody, followed by a chromogenic substrate. […] In the absence of a competitor, we observed robust absorbance signal in samples incubated with cARM. […]
(In general: ELISA stands for enzyme-linked immunosorbent assay.)

Experiment [3] has as its target prostate-specific membrane antigen (PSMA). The following applies: cited from earlier work.

Like-named read-outs stand apart in the source and are kept apart here.

As a reminder, the kon is the rate constant with which the complex forms. Read a low kon as slower complex formation. For orientation: koff means the first-order rate constant of dissociation. Low readings indicate slow dissociation, high ones fast dissociation. As a reminder, the Kd is the concentration at which binding is half-saturated. As to `C[C@@H]1O[C@H](SCc2cn(CCOCCNC(=O)OCCOCCOCCOCCOCCOCCOCCOCCNC(=O)CCCC[C@@H]3SC[C@@H]4NC(=O)N[C@@H]43)nn2)[C@H](O)[C@H](O)[C@H]1O` [compound 3], the figures for the kon in experiment [1] (26.2 µM IgG), in experiment [1] (52.5 µM IgG) and in experiment [1] (105 µM IgG) were 19771 M⁻¹ s⁻¹, 11537 M⁻¹ s⁻¹ and 6254 M⁻¹ s⁻¹, respectively. Also, the koff in experiment [1] (26.2 µM IgG) came to 0.576 s⁻¹; in experiment [1] (52.5 µM IgG), 0.481 s⁻¹; in experiment [1] (105 µM IgG), 0.3901 s⁻¹. The Kd amounted to 29 µM in experiment [1] (26.2 µM IgG, read-out: Kd); 42 µM in experiment [1] (52.5 µM IgG, read-out: Kd); 62 µM in experiment [1] (105 µM IgG, read-out: Kd); 44 ± 17 µM in experiment [1] (average of three IgG concentrations, read-out: Avg Kd).

Take `C[C@@H]1O[C@@H](SCc2cn(CCc3cn(C(=O)OCCOCCOCCOCCOCCOCCOCCOCCNC(=O)CCCC[C@@H]4SC[C@@H]5NC(=O)N[C@@H]54)cn3)nn2)[C@H](O)[C@H](O)[C@H]1O` [compound 5]: the “antibody binding signal, quench control” value in experiment [2] is “significant antibody binding signal”.

For glutamate urea [GU], the Kd in experiment [3] is < 0.01 µM.

These data come from article PMC10683482, “Offsetting Low-Affinity Carbohydrate Binding with Covalency to Engage Sugar-Specific Proteins for Tumor-Immune Proximity Induction” (ACS Central Science, 2023).
